Data from the supplement of paper PMC10307832.

What was measured:
Assay in all cases: relative viability (nuclei count vs DMSO), 5 days (fraction); higher = more cells survive
AZD5582 + Pemetrexed = compound: C[C@@H](C(=O)N[C@@H](C1CCCCC1)C(=O)N2CCC[C@H]2C(=O)N[C@@H]3[C@@H](CC4=CC=CC=C34)OCC#CC#CCO[C@@H]5CC6=CC=CC=C6[C@@H]5NC(=O)[C@@H]7CCCN7C(=O)[C@H](C8CCCCC8)NC(=O)[C@H](C)NC)NC [AZD5582] + Nc1nc2[nH]cc(CCc3ccc(C(=O)N[C@@H](CCC(=O)O)C(=O)O)cc3)c2c(=O)[nH]1 [Pemetrexed] (partner 0.2 µM)
In short: (§1)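 Relative viability was taken as the ratio of nuclei in treated wells to nuclei in vehicle wells. Lung cancer cell lines in 1536-well plates received compounds by pin tool one day after seeding, either one drug alone or a fixed anchor-drug dose plus five library-drug doses (not always all listed) in √10 steps. Nuclei were counted on 4× images after 5 days of treatment, and values are medians of duplicate plates.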

Temozolomide + Alpelisib = compound: Cn1nnc2c(C(N)=O)ncn2c1=O [Temozolomide] + Cc1nc(NC(=O)N2CCC[C@H]2C(N)=O)sc1-c1ccnc(C(C)(C)C(F)(F)F)c1 [Alpelisib] (partner 2 µM)
In short: as §1

AZD5582 + Palbociclib = compound: C[C@@H](C(=O)N[C@@H](C1CCCCC1)C(=O)N2CCC[C@H]2C(=O)N[C@@H]3[C@@H](CC4=CC=CC=C34)OCC#CC#CCO[C@@H]5CC6=CC=CC=C6[C@@H]5NC(=O)[C@@H]7CCCN7C(=O)[C@H](C8CCCCC8)NC(=O)[C@H](C)NC)NC [AZD5582] + CC(=O)c1c(C)c2cnc(Nc3ccc(N4CCNCC4)cn3)nc2n(C2CCCC2)c1=O [Palbociclib] (partner 0.5 µM)
In short: as §1

[1] = compound: Cn1nnc2c(C(N)=O)ncn2c1=O [Temozolomide] + Nc1ncn([C@H]2C[C@H](O)[C@@H](CO)O2)c(=O)n1 [Decitabine] (partner 2 µM)
In short: as §1

Cell Line	relative viability (AZD5582 + Pemetrexed; first compound 0.001581 µM)	relative viability (AZD5582 + Pemetrexed; first compound 0.005 µM)	relative viability (AZD5582 + Pemetrexed; first compound 0.01581 µM)	relative viability (AZD5582 + Pemetrexed; first compound 0.05 µM)	relative viability (Temozolomide + Alpelisib; first compound 0.2 µM)	relative viability (Temozolomide + Alpelisib; first compound 0.6325 µM)	relative viability (Temozolomide + Alpelisib; first compound 2 µM)	relative viability (Temozolomide + Alpelisib; first compound 6.325 µM)	relative viability (Temozolomide + Alpelisib; first compound 20 µM)	relative viability (AZD5582 + Palbociclib; first compound 0.001581 µM)	relative viability (AZD5582 + Palbociclib; first compound 0.005 µM)	relative viability (AZD5582 + Palbociclib; first compound 0.01581 µM)	relative viability (AZD5582 + Palbociclib; first compound 0.05 µM)	relative viability ([1]; first compound 0.2 µM)	relative viability ([1]; first compound 0.6325 µM)	relative viability ([1]; first compound 2 µM)	relative viability ([1]; first compound 6.325 µM)	relative viability ([1]; first compound 20 µM)
SK-MES-1	0.904	1.01	0.975	0.939	1.06	0.919	1.06	0.836	0.778	0.286	0.32	0.332	0.291	0.417	0.391	0.362	0.335	0.368
EPLC-272H			0.346	0.104	0.727	1.08	0.947	0.849	0.664	0.165		0.32	0.127	0.357	0.395	0.385	0.401	0.312
201T	0.311	0.299	0.298	0.281	0.977	1.05	1.04	1.04	0.985	0.375	0.357	0.316	0.43	0.832	0.877	0.866	0.821	0.843
LU99A	0.169	0.186	0.168	0.185	0.619	0.49	0.5	0.489	0.56	0.455	0.465	0.412	0.534	0.88	0.833	0.917	0.848	0.776
NCI-H2126	0.626	0.689	0.55	0.472	0.703	0.753	0.799	0.744	0.752	0.331	0.334	0.36	0.379	0.554	0.611	0.596	0.639	0.589
BEN	0.663	0.723	0.925	0.759	0.914	1.29	0.939	0.977	0.757	0.416	0.466	0.497	0.435	0.77	0.677	0.808	0.7	0.659
NCI-H2405	1.05	1.13	1.09	1.12	0.405	0.819	0.891	0.734	0.738	0.474	0.505	0.475	0.433	0.773	0.779	0.863	0.699	0.673
NCI-H2023	0.198	0.216	0.26	0.183	0.544	0.608	0.531	0.624	0.596	0.35	0.469	0.359	0.4	0.279	0.227	0.225	0.211	0.201
COR-L23	0.201	0.206	0.191	0.196	0.957	0.851	0.859	0.752	0.662	0.238	0.329	0.269	0.305	0.452	0.493	0.478	0.419	0.404
EMC-BAC-2	0.417	0.406	0.426	0.46	0.743	0.731	0.743	0.75	0.691	0.472	0.527	0.503	0.513	1.01	1.05	1.01	0.993	0.927
A-427	0.931	0.92	0.978	0.89	1.05	1.06	1.05	0.878	0.547	0.462	0.473	0.528	0.495	0.565	0.538	0.459	0.443	0.396
NCI-H2009	1	1.01	1.03	1.08	1.15	1.17	1.21	1.11	1.24	0.24	0.225	0.184	0.203	0.353	0.404	0.417	0.355	0.397
NCI-H358	0.178	0.171	0.179	0.17	0.657	0.729	0.912	0.833	0.676	0.124	0.156	0.14	0.136	0.19	0.224	0.223	0.228	0.207
NCI-H23	0.578	0.514	0.55	0.455	0.645	0.73	0.552	0.764	0.734	0.393	0.374	0.419	0.305	0.303	0.309	0.293	0.292	0.327
NCI-H2085	0.999	1.07	0.482	0.848	1.01	0.927	0.994	1.1	0.953	0.504	0.509	0.459	0.599	0.63	0.599	0.587	0.589	0.471
NCI-H1755	0.399	0.375	0.387	0.414	0.972	0.952	0.853	0.881	0.59	0.449	0.484	0.453	0.526	0.749	0.732	0.676	0.63	0.573
NCI-H1666	0.788	0.879	0.794	0.71	0.925	0.951	0.808	0.586	0.499	0.678	0.579	0.575	0.661	0.706	0.776	0.761	0.686	0.682
UMC-11	0.73	0.848	0.755	0.864	1.08	0.829	1.02	0.934	0.518	0.345	0.324	0.394	0.339	0.462	0.628	0.614	0.524	0.521
HCC-78	0.931	0.878	0.901	0.949	0.232	0.343	0.348	0.356	0.284	0.435	0.474	0.474	0.432	0.743	0.679	0.763		0.614
NCI-H1944	0.455	0.556	0.521	0.62	0.654	0.808	0.946	0.786	0.624	0.274	0.319	0.309	0.43	0.398	0.389	0.439	0.368	0.399
NCI-H1651	0.507	0.562	0.52	0.638	0.966	0.941	1.03	0.93	0.92	0.489	0.52	0.492	0.608	0.599	0.614	0.656	0.594	0.62
NCI-H2347	0.369	0.441	0.41	0.402	1.06	1.1	1.21	1.02	0.989	0.43	0.392	0.447	0.416	0.613	0.645	0.669	0.595	0.604
HOP-62	0.262	0.312	0.345	0.371	1.18	1	0.896	0.847	0.814	0.297	0.46	0.453	0.379	0.214	0.247	0.226	0.19	0.188
NCI-H1993	0.495	0.527	0.561	0.679	0.678	0.734	0.742	0.693	0.64	0.564	0.558	0.655	0.664	0.535	0.69	0.607	0.654	0.513
NCI-H1793	0.787	1.21	0.624	1.07		0.714	0.881	0.716	0.585	0.311	0.355	0.297	0.397		0.54	0.624	0.36	0.424
HCC-15	0.227	0.197	0.218	0.211	0.903	0.947	0.898	0.993	0.834	0.501	0.582	0.615	0.309	0.738	0.633	0.588	0.617	0.798
NCI-H1437	0.337	0.294	0.263	0.326	1.03	0.922	0.957	0.953	1.05	0.266	0.307	0.278	0.31	0.604	0.54	0.586	0.61	0.572
